# In US4442044A, “Process for preparing monoesters and diesters of N-alkyl substituted amino methyl phosphonic acid” (priority 1983, dated 1984):
# Tests used:
# Assay in all cases: post-emergent herbicidal activity, greenhouse
# Assay type in all cases: in vivo
# [1] = test system: Barnyardgrass
# Procedure, shortened: (§1)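 Post-emergence foliar spray at tabulated application rates, using aliquots of a 1.0% stock in acetone, THF or water plus ~0.4% emulsifier, applied to 2–3-week-old greenhouse plants. Plant injury was rated relative to controls roughly two and four weeks after treatment.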
# [2] = test system: Canada Thistle; conditions: Table I, 4 WAT
# Procedure, shortened: as §1
# [3] = test system: Cocklebur
# Procedure, shortened: as §1
# [4] = test system: Crabgrass; conditions: Table II, 4 WAT
# Procedure, shortened: as §1
# [5] = test system: Downy Brome
# Procedure, shortened: as §1
# [6] = test system: Hemp Sesbania; conditions: Table II
# Procedure, shortened: as §1
# [7] = test system: Johnsongrass; conditions: Table I, 4 WAT
# Procedure, shortened: as §1
# [8] = test system: Lambsquarters
# Procedure, shortened: as §1
# [9] = test system: Morningglory
# Procedure, shortened: as §1
# [10] = test system: Panicum Spp; conditions: Table II
# Procedure, shortened: as §1
# [11] = test system: Quackgrass; conditions: Table I, 4 WAT
# Procedure, shortened: as §1
# [12] = test system: Rice; conditions: Table II
# Procedure, shortened: as §1
# [13] = test system: Smartweed
# Procedure, shortened: as §1
# [14] = test system: Sorghum; conditions: Table II
# Procedure, shortened: as §1
# [15] = test system: Soybean; conditions: Table II
# Procedure, shortened: as §1
# [16] = test system: Sugar Beet; conditions: Table II
# Procedure, shortened: as §1
# [17] = test system: Velvetleaf
# Procedure, shortened: as §1
# [18] = test system: Wheat; conditions: Table II
# Procedure, shortened: as §1
# [19] = test system: Wild Buckwheat; conditions: Table II
# Procedure, shortened: as §1
# [20] = test system: Yellow Nutsedge; conditions: Table I, 4 WAT
# Procedure, shortened: as §1
smiles,measurement,setting,value
"CCOC(=O)CNCP(=O)(O)OCC(Cl)(Cl)Cl [Example 27, glycine, N-[[hydroxy(2,2,2-trichloroethoxy)-phosphinyl]methyl]-, ethyl ester]",post-emergent herbicidal activity index,"[1]; Table I, 4 WAT, 5.6 kg/h",3 (75-99% control)
same,post-emergent herbicidal activity index,"[1]; Table I, 4 WAT, 11.2 kg/h",3 (75-99% control)
same,post-emergent herbicidal activity index,"[1]; Table II, 2 WAT, 0.01 kg/h",0 (0-24% control)
same,post-emergent herbicidal activity index,"[1]; Table II, 2 WAT, 0.06 kg/h",0 (0-24% control)
same,post-emergent herbicidal activity index,"[1]; Table II, 4 WAT, 0.28 kg/h",3 (75-99% control)
same,post-emergent herbicidal activity index,"[1]; Table II, 4 WAT, 1.12 kg/h",3 (75-99% control)
same,post-emergent herbicidal activity index,"[1]; Table II, 4 WAT, 5.6 kg/h",3 (75-99% control)
same,post-emergent herbicidal activity index,[2]; 5.6 kg/h,1 (25-49% control)
same,post-emergent herbicidal activity index,[2]; 11.2 kg/h,2 (50-74% control)
same,post-emergent herbicidal activity index,"[3]; Table I, 4 WAT, 5.6 kg/h",2 (50-74% control)
same,post-emergent herbicidal activity index,"[3]; Table I, 4 WAT, 11.2 kg/h",2 (50-74% control)
same,post-emergent herbicidal activity index,"[3]; Table II, 2 WAT, 0.01 kg/h",0 (0-24% control)
same,post-emergent herbicidal activity index,"[3]; Table II, 2 WAT, 0.06 kg/h",0 (0-24% control)
same,post-emergent herbicidal activity index,"[3]; Table II, 4 WAT, 0.28 kg/h",2 (50-74% control)
same,post-emergent herbicidal activity index,"[3]; Table II, 4 WAT, 1.12 kg/h",2 (50-74% control)
same,post-emergent herbicidal activity index,"[3]; Table II, 4 WAT, 5.6 kg/h",3 (75-99% control)
same,post-emergent herbicidal activity index,[4]; 1.12 kg/h,3 (75-99% control)
same,post-emergent herbicidal activity index,[4]; 5.6 kg/h,4 (100% control)
same,post-emergent herbicidal activity index,"[5]; Table I, 4 WAT, 5.6 kg/h",0 (0-24% control)
same,post-emergent herbicidal activity index,"[5]; Table I, 4 WAT, 11.2 kg/h",0 (0-24% control)
same,post-emergent herbicidal activity index,"[5]; Table II, 2 WAT, 0.01 kg/h",0 (0-24% control)
same,post-emergent herbicidal activity index,"[5]; Table II, 2 WAT, 0.06 kg/h",0 (0-24% control)
same,post-emergent herbicidal activity index,"[5]; Table II, 4 WAT, 0.28 kg/h",3 (75-99% control)
same,post-emergent herbicidal activity index,"[5]; Table II, 4 WAT, 1.12 kg/h",3 (75-99% control)
same,post-emergent herbicidal activity index,"[5]; Table II, 4 WAT, 5.6 kg/h",3 (75-99% control)
same,post-emergent herbicidal activity index,"[6]; 2 WAT, 0.01 kg/h",0 (0-24% control)
same,post-emergent herbicidal activity index,"[6]; 2 WAT, 0.06 kg/h",0 (0-24% control)
same,post-emergent herbicidal activity index,"[6]; 4 WAT, 0.28 kg/h",1 (25-49% control)
same,post-emergent herbicidal activity index,"[6]; 4 WAT, 1.12 kg/h",2 (50-74% control)
same,post-emergent herbicidal activity index,"[6]; 4 WAT, 5.6 kg/h",3 (75-99% control)
same,post-emergent herbicidal activity index,[7]; 5.6 kg/h,2 (50-74% control)
same,post-emergent herbicidal activity index,[7]; 11.2 kg/h,0 (0-24% control)
same,post-emergent herbicidal activity index,"[8]; Table I, 4 WAT, 5.6 kg/h",3 (75-99% control)
same,post-emergent herbicidal activity index,"[8]; Table I, 4 WAT, 11.2 kg/h",3 (75-99% control)
same,post-emergent herbicidal activity index,"[8]; Table II, 2 WAT, 0.01 kg/h",0 (0-24% control)
same,post-emergent herbicidal activity index,"[8]; Table II, 2 WAT, 0.06 kg/h",0 (0-24% control)
same,post-emergent herbicidal activity index,"[8]; Table II, 4 WAT, 0.28 kg/h",1 (25-49% control)
same,post-emergent herbicidal activity index,"[8]; Table II, 4 WAT, 1.12 kg/h",2 (50-74% control)
same,post-emergent herbicidal activity index,"[8]; Table II, 4 WAT, 5.6 kg/h",3 (75-99% control)
same,post-emergent herbicidal activity index,"[9]; Table I, 4 WAT, 5.6 kg/h",2 (50-74% control)
same,post-emergent herbicidal activity index,"[9]; Table I, 4 WAT, 11.2 kg/h",2 (50-74% control)
same,post-emergent herbicidal activity index,"[9]; Table II, 2 WAT, 0.01 kg/h",0 (0-24% control)
same,post-emergent herbicidal activity index,"[9]; Table II, 2 WAT, 0.06 kg/h",0 (0-24% control)
same,post-emergent herbicidal activity index,"[9]; Table II, 4 WAT, 0.28 kg/h",2 (50-74% control)
same,post-emergent herbicidal activity index,"[9]; Table II, 4 WAT, 1.12 kg/h",2 (50-74% control)
same,post-emergent herbicidal activity index,"[9]; Table II, 4 WAT, 5.6 kg/h",2 (50-74% control)
same,post-emergent herbicidal activity index,"[10]; 2 WAT, 0.01 kg/h",0 (0-24% control)
same,post-emergent herbicidal activity index,"[10]; 2 WAT, 0.06 kg/h",0 (0-24% control)
same,post-emergent herbicidal activity index,"[10]; 4 WAT, 0.28 kg/h",3 (75-99% control)
same,post-emergent herbicidal activity index,"[10]; 4 WAT, 1.12 kg/h",4 (100% control)
same,post-emergent herbicidal activity index,"[10]; 4 WAT, 5.6 kg/h",4 (100% control)
same,post-emergent herbicidal activity index,[11]; 5.6 kg/h,1 (25-49% control)
same,post-emergent herbicidal activity index,[11]; 11.2 kg/h,1 (25-49% control)
same,post-emergent herbicidal activity index,"[12]; 2 WAT, 0.01 kg/h",0 (0-24% control)
same,post-emergent herbicidal activity index,"[12]; 2 WAT, 0.06 kg/h",0 (0-24% control)
same,post-emergent herbicidal activity index,"[12]; 4 WAT, 0.28 kg/h",3 (75-99% control)
same,post-emergent herbicidal activity index,"[12]; 4 WAT, 1.12 kg/h",3 (75-99% control)
same,post-emergent herbicidal activity index,"[12]; 4 WAT, 5.6 kg/h",3 (75-99% control)
same,post-emergent herbicidal activity index,"[13]; Table I, 4 WAT, 5.6 kg/h",2 (50-74% control)
same,post-emergent herbicidal activity index,"[13]; Table I, 4 WAT, 11.2 kg/h",2 (50-74% control)
same,post-emergent herbicidal activity index,"[13]; Table II, 2 WAT, 0.01 kg/h",0 (0-24% control)
same,post-emergent herbicidal activity index,"[13]; Table II, 2 WAT, 0.06 kg/h",0 (0-24% control)
same,post-emergent herbicidal activity index,"[13]; Table II, 4 WAT, 0.28 kg/h",3 (75-99% control)
same,post-emergent herbicidal activity index,"[13]; Table II, 4 WAT, 1.12 kg/h",2 (50-74% control)
same,post-emergent herbicidal activity index,"[13]; Table II, 4 WAT, 5.6 kg/h",3 (75-99% control)
same,post-emergent herbicidal activity index,"[14]; 2 WAT, 0.01 kg/h",0 (0-24% control)
same,post-emergent herbicidal activity index,"[14]; 2 WAT, 0.06 kg/h",0 (0-24% control)
same,post-emergent herbicidal activity index,"[14]; 4 WAT, 0.28 kg/h",2 (50-74% control)
same,post-emergent herbicidal activity index,"[14]; 4 WAT, 1.12 kg/h",2 (50-74% control)
same,post-emergent herbicidal activity index,"[14]; 4 WAT, 5.6 kg/h",3 (75-99% control)
same,post-emergent herbicidal activity index,"[15]; 2 WAT, 0.01 kg/h",0 (0-24% control)
same,post-emergent herbicidal activity index,"[15]; 2 WAT, 0.06 kg/h",0 (0-24% control)
same,post-emergent herbicidal activity index,"[15]; 4 WAT, 0.28 kg/h",2 (50-74% control)
same,post-emergent herbicidal activity index,"[15]; 4 WAT, 1.12 kg/h",2 (50-74% control)
same,post-emergent herbicidal activity index,"[15]; 4 WAT, 5.6 kg/h",3 (75-99% control)
same,post-emergent herbicidal activity index,"[16]; 2 WAT, 0.01 kg/h",0 (0-24% control)
same,post-emergent herbicidal activity index,"[16]; 2 WAT, 0.06 kg/h",0 (0-24% control)
same,post-emergent herbicidal activity index,"[16]; 4 WAT, 0.28 kg/h",2 (50-74% control)
same,post-emergent herbicidal activity index,"[16]; 4 WAT, 1.12 kg/h",2 (50-74% control)
same,post-emergent herbicidal activity index,"[16]; 4 WAT, 5.6 kg/h",3 (75-99% control)
same,post-emergent herbicidal activity index,"[17]; Table I, 4 WAT, 5.6 kg/h",1 (25-49% control)
same,post-emergent herbicidal activity index,"[17]; Table I, 4 WAT, 11.2 kg/h",2 (50-74% control)
same,post-emergent herbicidal activity index,"[17]; Table II, 2 WAT, 0.01 kg/h",0 (0-24% control)
same,post-emergent herbicidal activity index,"[17]; Table II, 2 WAT, 0.06 kg/h",0 (0-24% control)
same,post-emergent herbicidal activity index,"[17]; Table II, 4 WAT, 0.28 kg/h",1 (25-49% control)
same,post-emergent herbicidal activity index,"[17]; Table II, 4 WAT, 1.12 kg/h",1 (25-49% control)
same,post-emergent herbicidal activity index,"[17]; Table II, 4 WAT, 5.6 kg/h",1 (25-49% control)
same,post-emergent herbicidal activity index,"[18]; 2 WAT, 0.01 kg/h",0 (0-24% control)
same,post-emergent herbicidal activity index,"[18]; 2 WAT, 0.06 kg/h",0 (0-24% control)
same,post-emergent herbicidal activity index,"[18]; 4 WAT, 0.28 kg/h",3 (75-99% control)
same,post-emergent herbicidal activity index,"[18]; 4 WAT, 1.12 kg/h",2 (50-74% control)
same,post-emergent herbicidal activity index,"[18]; 4 WAT, 5.6 kg/h",4 (100% control)
same,post-emergent herbicidal activity index,"[19]; 2 WAT, 0.01 kg/h",0 (0-24% control)
same,post-emergent herbicidal activity index,"[19]; 2 WAT, 0.06 kg/h",0 (0-24% control)
same,post-emergent herbicidal activity index,"[19]; 4 WAT, 0.28 kg/h",2 (50-74% control)
same,post-emergent herbicidal activity index,"[19]; 4 WAT, 1.12 kg/h",2 (50-74% control)
same,post-emergent herbicidal activity index,"[19]; 4 WAT, 5.6 kg/h",2 (50-74% control)
same,post-emergent herbicidal activity index,[20]; 5.6 kg/h,0 (0-24% control)
same,post-emergent herbicidal activity index,[20]; 11.2 kg/h,2 (50-74% control)
